From US11000033B2, “Ketone or oxime compound, and herbicide” (NISSAN CHEMICAL CORPORATION, priority 2014, dated 2021)

Columns and labels:
Format in all cases: in vivo
[1] = test system: Monochoria vaginalis; assay: Test Example 1: herbicidal activity, application before weed generation in submerged conditions (symbol C); details: application herbicide amount 320 g/ha
Method in brief: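 In a flooded pot test with alluvial soil, the emulsion-formulated compound was diluted with water to a predetermined amount and applied to the floodwater immediately on the sowing day. Pots were held in a greenhouse at 25–30 °C for 3 weeks before each weed was rated.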

[2] = test system: Echinochloa oryzacola Vasing.; assay: Test Example 2: herbicidal activity, application during weed generation in submerged conditions (symbol A); details: Table 23; application herbicide amount 320 g/ha; grade 0-5 by criteria of Test Example 1
Method in brief: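 Seeds sown in flooded alluvial soil (4 cm water) were grown in a 25-30° C greenhouse. At the one- to two-leaf stage, diluted emulsion of compound was applied to the water surface at a predetermined rate. Effect was scored 3 weeks later.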

[3] = test system: Leptochloa chinensis; assay: Test Example 3: herbicidal effect by foliage application, Wagner pot (symbol D); details: application herbicide amount 320 g/ha
Method in brief: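 Plants sown in submerged alluvial soil (water depth 0.1–0.5 cm) in a 25–30 °C greenhouse and grown 14 days. An emulsion of the compound diluted in water to a set herbicide amount was sprayed uniformly on foliage. Effect on each plant scored 3 weeks after application.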

[4] = test system: Digitaria ciliaris; assay: Test Example 4: herbicidal effect by soil treatment (symbol F)
Method in brief: (§1)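 Seeds were sown in sterilized diluvial soil, covered with about 1.5 cm of soil, and the soil surface was sprayed with a water-diluted emulsion of the compound at a predetermined rate. Plants grew in a greenhouse at 25° C. to 30° C.; effects were scored visually 3 weeks after application.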

[5] = test system: Setaria viridis; assay: Test Example 4: herbicidal effect by soil treatment (symbol G)
Method in brief: as §1

[6] = test system: Chenopodium album; assay: Test Example 4: herbicidal effect by soil treatment (symbol O)
Method in brief: as §1

[7] = test system: Apera spica-venti; assay: Test Example 5: herbicidal effect by foliage application, plastic box (symbol L); details: 320 g/ha, 3 weeks after application
Method in brief: (§2)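 Emulsion formulation, diluted with water to the intended rate, was applied uniformly to leaves by small sprayer. Recipients were 14-day greenhouse-grown seedlings (25° C. to 30° C.). Assessment followed at 3 weeks.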

[8] = test system: Abutilon theophrasti; assay: Test Example 5: herbicidal effect by foliage application, plastic box (symbol M); details: 320 g/ha, 3 weeks after application
Method in brief: as §2

[9] = test system: Amaranthus retroflexus; assay: Test Example 5: herbicidal effect by foliage application, plastic box (symbol N); details: 320 g/ha, 3 weeks after application
Method in brief: as §2

[10] = test system: Chenopodium album; assay: Test Example 5: herbicidal effect by foliage application, plastic box (symbol O); details: 320 g/ha, 3 weeks after application
Method in brief: as §2

[11] = test system: Galium spurium; assay: Test Example 5: herbicidal effect by foliage application, plastic box (symbol Q); details: 320 g/ha, 3 weeks after application
Method in brief: as §2

[12] = test system: corn; assay: Test Example 5: effect on crop by foliage application, plastic box (symbol c); details: 320 g/ha, 3 weeks after application
Method in brief: (§3)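 Crop and weed seeds sown in spots in sterilized diluvial soil in plastic boxes and covered with about 1.5 cm soil. Plants raised in a greenhouse at 25° C. to 30° C. for foliar application.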

[13] = test system: soybean; assay: Test Example 5: effect on crop by foliage application, plastic box (symbol d); details: 320 g/ha, 3 weeks after application
Method in brief: as §3

[14] = test system: beet; assay: Test Example 5: effect on crop by foliage application, plastic box (symbol f); details: 320 g/ha, 3 weeks after application
Method in brief: as §3

[15] = test system: rapeseed; assay: Test Example 5: effect on crop by foliage application, plastic box (symbol g); details: 320 g/ha, 3 weeks after application
Method in brief: as §3

[16] = application herbicide amount 320 g/ha

| Structure (SMILES) | Herbicidal effect grade, C: Monochoria vaginalis [1] | Herbicidal effect grade, A: Echinochloa oryzacola Vasing. [2] | herbicidal effect on D (Leptochloa chinensis), grade 0-5 [3] | F: Digitaria ciliaris, herbicidal effect grade [4, 16] | G: Setaria viridis, herbicidal effect grade [5, 16] | O: Chenopodium album, herbicidal effect grade [6, 16] | L: Apera spica-venti, herbicidal effect grade [7] | M: Abutilon theophrasti, herbicidal effect grade [8] | N: Amaranthus retroflexus, herbicidal effect grade [9] | O: Chenopodium album, herbicidal effect grade [10] | Q: Galium spurium, herbicidal effect grade [11] | c: corn, effect on crop grade [12] | d: soybean, effect on crop grade [13] | f: beet, effect on crop grade [14] | g: rapeseed, effect on crop grade [15] | F: Digitaria ciliaris, herbicidal effect grade ([4]; 320 g/ha) | G: Setaria viridis, herbicidal effect grade ([5]; 320 g/ha) | O: Chenopodium album, herbicidal effect grade ([6]; 320 g/ha) |
| --- | --- | --- | --- | --- | --- | --- | --- | --- | --- | --- | --- | --- | --- | --- | --- | --- | --- | --- |
| C=CC(=O)CC1CC(O)=C(c2c(C)cc(C)cc2C)C1=O (stereo not drawn) [2-031] | 2 (Herbicidal ratio of 20% or higher and lower than 40%) | 4 (Herbicidal ratio of 70% or higher and lower than 90%) | 5 (Herbicidal ratio of 90% or more (almost completely withered)) | 5 (Herbicidal ratio of 90% or more (almost completely withered)) | 5 (Herbicidal ratio of 90% or more (almost completely withered)) | 0 (Herbicidal ratio of 5% or lower (almost no effect)) | 4 (Herbicidal ratio of 70% or higher and lower than 90%) | 0 (Herbicidal ratio of 5% or lower (almost no effect)) | 0 (Herbicidal ratio of 5% or lower (almost no effect)) | 0 (Herbicidal ratio of 5% or lower (almost no effect)) | 0 (Herbicidal ratio of 5% or lower (almost no effect)) | 5 (Herbicidal ratio of 90% or more (almost completely withered)) | 0 (Herbicidal ratio of 5% or lower (almost no effect)) | 0 (Herbicidal ratio of 5% or lower (almost no effect)) | 4 (Herbicidal ratio of 70% or higher and lower than 90%) | – | – | – |
| CON=C(C)CC1CC(OC(=O)C(C)Oc2ccc(Oc3ccc(Cl)cc3Cl)cc2)=C(c2c(C)cc(C)cc2C)C1=O (stereo not drawn) [1-163] | 0 (Herbicidal ratio of 5% or lower (almost no effect)) | 5 (Herbicidal ratio of 90% or more (almost completely withered)) | 5 (Herbicidal ratio of 90% or more (almost completely withered)) | – | – | – | 5 (Herbicidal ratio of 90% or more (almost completely withered)) | 4 (Herbicidal ratio of 70% or higher and lower than 90%) | 3 (Herbicidal ratio of 40% or higher and lower than 70%) | 3 (Herbicidal ratio of 40% or higher and lower than 70%) | 3 (Herbicidal ratio of 40% or higher and lower than 70%) | 4 (Herbicidal ratio of 70% or higher and lower than 90%) | 2 (Herbicidal ratio of 20% or higher and lower than 40%) | 4 (Herbicidal ratio of 70% or higher and lower than 90%) | 5 (Herbicidal ratio of 90% or more (almost completely withered)) | 5 (Herbicidal ratio of 90% or more (almost completely withered)) | 5 (Herbicidal ratio of 90% or more (almost completely withered)) | 0 (Herbicidal ratio of 5% or lower (almost no effect)) |
| CON=C(C)CC1CC(O)=C(c2c(C)cc(OCC(F)(F)F)cc2C)C1=O (stereo not drawn) [6-049] | 4 (Herbicidal ratio of 70% or higher and lower than 90%) | 5 (Herbicidal ratio of 90% or more (almost completely withered)) | 5 (Herbicidal ratio of 90% or more (almost completely withered)) | 5 (Herbicidal ratio of 90% or more (almost completely withered)) | 5 (Herbicidal ratio of 90% or more (almost completely withered)) | 4 (Herbicidal ratio of 70% or higher and lower than 90%) | 5 (Herbicidal ratio of 90% or more (almost completely withered)) | 3 (Herbicidal ratio of 40% or higher and lower than 70%) | 4 (Herbicidal ratio of 70% or higher and lower than 90%) | 5 (Herbicidal ratio of 90% or more (almost completely withered)) | 5 (Herbicidal ratio of 90% or more (almost completely withered)) | 5 (Herbicidal ratio of 90% or more (almost completely withered)) | 2 (Herbicidal ratio of 20% or higher and lower than 40%) | 4 (Herbicidal ratio of 70% or higher and lower than 90%) | 5 (Herbicidal ratio of 90% or more (almost completely withered)) | – | – | – |
| CON=C(C)CC1CC(O)=C(c2c(C)cc(-c3cccc(Cl)c3)cc2C)C1=O (mixture of isomers) [6-034] | 4 (Herbicidal ratio of 70% or higher and lower than 90%) | 5 (Herbicidal ratio of 90% or more (almost completely withered)) | 5 (Herbicidal ratio of 90% or more (almost completely withered)) | 5 (Herbicidal ratio of 90% or more (almost completely withered)) | 5 (Herbicidal ratio of 90% or more (almost completely withered)) | 0 (Herbicidal ratio of 5% or lower (almost no effect)) | 5 (Herbicidal ratio of 90% or more (almost completely withered)) | 3 (Herbicidal ratio of 40% or higher and lower than 70%) | 3 (Herbicidal ratio of 40% or higher and lower than 70%) | 3 (Herbicidal ratio of 40% or higher and lower than 70%) | 5 (Herbicidal ratio of 90% or more (almost completely withered)) | 5 (Herbicidal ratio of 90% or more (almost completely withered)) | 0 (Herbicidal ratio of 5% or lower (almost no effect)) | 0 (Herbicidal ratio of 5% or lower (almost no effect)) | 4 (Herbicidal ratio of 70% or higher and lower than 90%) | – | – | – |
| COC(=O)C(C(C)=O)C1CC(O)=C(c2c(C)cc(C)cc2C)C1=O (stereo not drawn) [2-003] | 0 (Herbicidal ratio of 5% or lower (almost no effect)) | 0 (Herbicidal ratio of 5% or lower (almost no effect)) | 5 (Herbicidal ratio of 90% or more (almost completely withered)) | – | – | – | 4 (Herbicidal ratio of 70% or higher and lower than 90%) | 1 (Herbicidal ratio of 5% or higher and lower than 20%) | 0 (Herbicidal ratio of 5% or lower (almost no effect)) | 0 (Herbicidal ratio of 5% or lower (almost no effect)) | 0 (Herbicidal ratio of 5% or lower (almost no effect)) | 3 (Herbicidal ratio of 40% or higher and lower than 70%) | 0 (Herbicidal ratio of 5% or lower (almost no effect)) | 0 (Herbicidal ratio of 5% or lower (almost no effect)) | 3 (Herbicidal ratio of 40% or higher and lower than 70%) | 4 (Herbicidal ratio of 70% or higher and lower than 90%) | 0 (Herbicidal ratio of 5% or lower (almost no effect)) | 0 (Herbicidal ratio of 5% or lower (almost no effect)) |
